# Source: patent publication US12281118B2, “Nitrogen-containing fused heterocyclic SHP2 inhibitor compound, preparation method, and use” (SHANGHAI RINGENE BIOPHARMA CO., LTD., priority 2018, dated 2025)
# How the values were obtained:
# Type in all cases: in vivo
# [1] = tested on: MV 4-11 tumor cell xenograft; assay: Growth inhibition of xenograft in nude mice; settings: orally, once daily, for 21 consecutive days
# Excerpt: (§1) Experimental method: 1) Culturing MV 4-11/KYSE520/NCI-H358 cells in a culture medium containing 10% fetal bovine serum. Harvesting tumor cells at an exponential growth phase, and resuspending in PBS to suitable concentrations for subcutaneous tumor inoculation in nude mice. 2) Subcutaneously inoculating 2-8×10^7 tumor cells at the right back of a mouse, and resuspending the cells in PBS and matrigel (1:1); observing tumor growth regularly, and randomizing mice for administration based on tumor size and mouse body weight when tumors grow to a mean volume of ˜120 mm^3-[…]. 3) Defining the day of tumor cell inoculation as Day 0. Prior to the start of dosing, weighing all animals and measuring the tumor volume with a vernier caliper. 3) Administering orally compound of examples (prepared with water for injection containing 1% Tween80 to a desired concentration for use) at a given dose for three consecutive weeks, and giving an equal amount of solvent animals in a solvent control group. Measuring diameters of the xenograft twice a week throughout the experiment, and weighing the mice were at the same time.
# (§2) The calculation formula of tumor volume (TV) is: TV=½×a×b^2, wherein a and b represent length and width, respectively. The relative tumor volume (RTV) is calculated based on the measured results using the formula: RTV=Vt/V0, wherein V0 is the tumor volume measured at the time of dosing in separate cages (i.e., Day 0) and Vt is the tumor volume at each measurement. The anti-tumor activity is evaluated by the following measures: 1) relative tumor proliferation rate T/C (%), which is calculated by the following formula: T/C (%)=(TRTV/CRTV)×100%, wherein TRTV: RTV of ae treatment group; CRTV: RTV of a negative control group; 2) inhibition rate of tumor volume growth GI %, which is calculated by the following formula: GI %=[1−(TVt−TV0)/(CVt−[…])]×100%, wherein TVt is the tumor volume at each measurement in the treatment group; TV0 is the tumor volume obtained at the time of dosing in separate cages in the treatment group; CVt is the tumor volume at each measurement in the control group; CV0 is the tumor volume obtained at the time of dosing in separate cages in the control group (specific data are shown in Table 4).
# [2] = tested on: KYSE520 tumor cell xenograft; assay: Growth inhibition of xenograft in nude mice; settings: orally, once daily, for 21 consecutive days
# Excerpt: as §1, §2
# [3] = tested on: NCI-H358 tumor cell xenograft; assay: Growth inhibition of xenograft in nude mice; settings: orally, once daily, for 21 consecutive days
# Excerpt: as §1, §2
# [4] = tested on: MV 4-11/KYSE520/NCI-H358 tumor cell xenografts; assay: Xenograft study in nude mice: tolerance and westernblot assay of tumor tissues
# Excerpt: as §1
structure (smiles),measurement,setting,value
"Cc1nc(N2CCC3(CC2)Cc2ccccc2[C@H]3N)n2ccnc2c1Sc1ccnc(N)c1Cl [Example 1, (S)-1′-(8-((2-amino-3-chloropyridin-4-yl)thio)-7-methylimidazo [1,2-c]pyrimidin-5-yl)-1,3-dihydrospiro [indene-2,4′-piperidine]-1-amine]",T/C,[1]; 2 mg/kg,28%
same,T/C,[1]; 5 mg/kg,3.0%
same,T/C,[2]; 2 mg/kg,30%
same,T/C,[2]; 6 mg/kg,18%
same,T/C,[3]; 0.8 mg/kg,39%
same,T/C,[3]; 2.5 mg/kg,13%
same,inhibition of the signaling pathway in tumor tissues (westernblot),[4]; 24 hours after the last dosing,can still inhibit the signaling pathway in tumor tissues continuously 24 hours after the last dosing
same,tolerance of the experimental animals,"[4]; nude mice with xenografts, oral dosing for three weeks",well tolerated
